Measured values taken from patent publication EP0399422A1, “Benzocycloalkane derivatives and production thereof” (Takeda Chemical Industries, Ltd., priority 1989, dated 1990).

test system: Acyl-CoA:cholesterol acyl transferase (ACAT); assay: Acyl-CoA:cholesterol acyl transferase (ACAT) inhibiting activity; assay type: biochemical, male Sprague-Dawley rats; design: tested at 1 µM; details: inhibition of labeled cholesterol ester formation at 10⁻⁶ M of the test compounds; small intestine mucosa microsome fraction
Method: An ACAT enzyme preparation was obtained from the small intestine mucosa microsome fraction from male Sprague-Dawley rats of 6 weeks of age fasted for 20 hours, as described by Heider et al. [Journal of Lipid Research, 24, 1127 (1982)].
The ACAT activity was calculated by determining the yield of a labeled cholesterol ester from [1-¹⁴C]oleoyl-CoA and endogenous cholesterol using the method of Helgerud et al. [Journal of Lipid Research, 22, 271 (1981)].
The inhibition percentages of the labeled cholesterol ester formation at 10⁻⁶ M of the test compounds are shown in Table 1 as ACAT inhibiting activity indices.

Compound | % ACAT inhibition [%]
O=C(Nc1ccc(F)cc1F)N(Cc1ccccc1)C1Cc2ccccc2C1 [Example 2, N-Benzyl-N′-(2,4-difluorophenyl)-N-(2-indanyl)urea] | 65
O=C(Nc1ccc(F)cc1F)N(Cc1ccc(Cl)cc1)C1Cc2ccccc2C1 [Example 5, N-(4-Chlorobenzyl)-N′-(2,4-difluorophenyl)-N-(2-indanyl)urea] | 76
CC(c1ccccc1)N(C(=O)Nc1ccc(F)cc1F)C1Cc2ccccc2C1 (stereo not drawn) [Example 6, N-(2,4-Difluorophenyl)-N′-(2-indanyl)-N′-(1-phenylethyl)urea] | 80
CCC(c1ccccc1)N(C(=O)Nc1ccc(F)cc1F)C1Cc2ccccc2C1 (stereo not drawn) [Example 7, N-(2,4-Difluorophenyl)-N′-(2-indanyl)-N′-(1-phenylpropyl)urea] | 72
O=C(Nc1ccc(F)cc1F)N(C1Cc2ccccc2C1)C(c1ccccc1)c1ccccc1 [Example 9, N-(2,4-Difluorophenyl)-N′-(2-indanyl)-N′-diphenyl methylurea] | 53
Cc1ccccc1CN(C(=O)Nc1ccc(F)cc1F)C1Cc2ccccc2C1 [Example 10, N-(2,4-Difluorophenyl)-N′-(2-indanyl)-N′-(2-methylbenzyl)urea] | 72
Cc1cccc(CN(C(=O)Nc2ccc(F)cc2F)C2Cc3ccccc3C2)c1 [Example 11, N-(2,4-Difluorophenyl)-N′-(2-indanyl)-N′-(3-methylbenzyl)urea] | 64
Cc1ccc(CN(C(=O)Nc2ccc(F)cc2F)C2Cc3ccccc3C2)cc1 [Example 12, N-(2,4-Difluorophenyl)-N′-(2-indanyl)-N′-(4-methylbenzyl)urea] | 77
CC(C)c1ccc(CN(C(=O)Nc2ccc(F)cc2F)C2Cc3ccccc3C2)cc1 [Example 13, N-(4-Isopropylbenzyl)-N′-(2,4-difluorophenyl)-N-(2-indanyl)urea] | 86
Cc1ccc(CN(C(=O)Nc2ccc(F)cc2F)C2Cc3ccccc3C2)c(C)c1 [Example 15, N-(2,4-Difluorophenyl)-N′-(2-indanyl)-N′-(2,4-dimethylbenzyl)urea] | 88
Cc1ccc(C)c(CN(C(=O)Nc2ccc(F)cc2F)C2Cc3ccccc3C2)c1 [Example 16, N-(2,4-Difluorophenyl)-N′-(2-indanyl)-N′-(2,5-dimethylbenzyl)urea] | 86
Cc1cc(C)c(CN(C(=O)Nc2ccc(F)cc2F)C2Cc3ccccc3C2)c(C)c1 [Example 17, N-(2,4-Difluorophenyl)-N′-(2-indanyl)-N′-(2,4,6-trimethylbenzyl)urea] | 75
COc1ccccc1CN(C(=O)Nc1ccc(F)cc1F)C1Cc2ccccc2C1 [Example 19, N-(2,4-Difluorophenyl)-N′-(2-indanyl)-N′-(2-methoxybenzyl)urea] | 55
COc1ccc(CN(C(=O)Nc2ccc(F)cc2F)C2Cc3ccccc3C2)c(OC)c1 [Example 20, N-(2,4-Difluorophenyl)-N′-(2-indanyl)-N′-(2,4-dimethoxybenzyl)urea] | 72
COc1cc(CN(C(=O)Nc2ccc(F)cc2F)C2Cc3ccccc3C2)cc(OC)c1OC [Example 22, N-(2,4-Difluorophenyl)-N′-(2-indanyl)-N′-(3,4,5-trimethoxybenzyl)urea] | 55
O=C(Nc1ccc(F)cc1F)N(Cc1cccs1)C1Cc2ccccc2C1 [Example 23, N-(2,4-Difluorophenyl)-N′-(2-indanyl)-N′-(2-thienylmethyl)urea] | 57
O=C(Nc1ccc(F)cc1F)N(CC1CCCCC1)C1Cc2ccccc2C1 [Example 26, N-Cyclohexylmethyl-N′-(2,4-difluorophenyl)-N-(2-indanyl)urea] | 60
Cc1cc(C)c2c(c1)CC(N(Cc1ccccc1)C(=O)Nc1ccc(F)cc1F)C2 (stereo not drawn) [Example 27, N-Benzyl-N′-(2,4-difluorophenyl)-N-(4,6-dimethyl-2-indanyl)urea] | 58
COc1ccc(OC)c2c1CC(N(Cc1ccccc1)C(=O)Nc1ccc(F)cc1F)C2 [Example 28, N-Benzyl-N′-(2,4-difluorophenyl)-N-(4,7-dimethoxy-2-indanyl)urea] | 56
COc1cc(CN(C(=O)Nc2ccc(F)cc2F)C2Cc3ccccc3C2)ccc1O [Example 33, N-(2,4-Difluorophenyl)-N′-(4-hydroxy-3-methoxybenzyl)-N′-(2-indanyl)urea] | 57

Compound | % ACAT inhibition [%]
COc1cc(CN(C(=O)Nc2ccc(F)cc2F)C2Cc3ccccc3C2)c(OC)c(C)c1C [Example 35, N-(2,4-Difluorophenyl)-N′-(2-indanyl)-N′-(2,5-dimethoxy-3,4-dimethylbenzyl)urea] | 58
COc1cc(C)c(CN(C(=O)Nc2ccc(F)cc2F)C2Cc3ccccc3C2)cc1C [Example 36, N-(2,4-Difluorophenyl)-N′-(2-indanyl)-N′-(4-methoxy-2,5-dimethylbenzyl)urea] | 72
Cc1cc(CN(C(=O)Nc2ccc(F)cc2F)C2Cc3ccccc3C2)c(C)cc1O [Example 37, N-(2,4-Difluorophenyl)-N′-(4-hydroxy-2,5-dimethylbenzyl)-N′-(2-indanyl)urea] | 93
Cc1cc(CN(C(=O)Nc2ccc(F)cc2F)C2Cc3ccccc3C2)c(C)c(C)c1O [Example 39, N-(2,4-Difluorophenyl)-N′-(4-hydroxy-2,3,5-trimethylbenzyl)-N′-(2-indanyl)urea] | 89
CC(C)c1cc(CN(C(=O)Nc2ccc(F)cc2F)C2Cc3ccccc3C2)cc(C(C)C)c1O [Example 40, N-(2,4-Difluorophenyl)-N′-(4-hydroxy-3,5-diisopropylbenzyl)-N′-(2-indanyl)urea] | 83
Cc1cc(O)c(C(C)(C)C)cc1CN(C(=O)Nc1ccc(F)cc1F)C1Cc2ccccc2C1 [Example 41, N-(5-tert-Butyl-4-hydroxy-2-methylbenzyl)-N′-(2,4-difluorophenyl)-N-(2-indanyl)urea] | 95
CC(C)(C)c1cc(CN(C(=O)Nc2ccc(F)cc2F)C2Cc3ccccc3C2)cc(C(C)(C)C)c1O [Example 42, N-(3,5-Di-tert-butyl-4-hydroxybenzyl)-N′-(2,4-difluorophenyl)-N-(2-indanyl)urea] | 62
O=C(Nc1ccc(F)cc1F)N(Cc1ccccc1)C1CCc2ccccc2C1 (stereo not drawn) [Example 44, N-Benzyl-N′-(2,4-difluorophenyl)-N-(1,2,3,4-tetrahydro-2-naphthyl)urea] | 63
Cc1cc(O)c(C(C)C)cc1CN(C(=O)Nc1ccc(F)cc1F)C1Cc2ccccc2C1 [Example 45, N-(2,4-Difluorophenyl)-N′-(4-hydroxy-5-isopropyl-2-methylbenzyl)-N′-(2-indanyl)urea] | 96
Cc1cc(CN(C(=O)Nc2ccc(F)cc2F)C2Cc3ccccc3C2)c(C(C)C)cc1O [Example 46, N-(2,4-Difluorophenyl)-N′-(4-hydroxy-2-isopropyl-5-methylbenzyl)-N′-(2-indanyl)urea] | 77
O=C(Nc1ccc(F)cc1F)N(Cc1ccccc1)C1CCCc2ccccc2C1 (stereo not drawn) [Example 49, N-Benzyl-N′-(2,4-difluorophenyl)-N-(6,7,8,9-tetrahydro-5H-6-benzocycloheptenyl)urea] | 89
Cc1cc(O)c(C(C)(C)C)cc1CN(C(=O)Nc1ccc(F)cc1F)C1CCCc2ccccc2C1 (stereo not drawn) [Example 50, N-(5-tert-Butyl-4-hydroxy-2-methylbenzyl)-N′-(2,4-difluorophenyl)-N-(6,7,8,9-tetrahydro-5H-6-benzocycloheptenyl)urea] | 85
Cc1ccc(C)c(CN(C(=O)Nc2ccc(F)cc2F)C2CCCc3ccccc3C2)c1 (stereo not drawn) [Example 56, N-(2,4-Difluorophenyl)-N′-(6,7,8,9-tetrahydro-5H-6-benzocycloheptenyl)-N′-(2,5-dimethylbenzyl)urea] | 79
O=C(Nc1ccc(F)cc1F)N(Cc1ccccc1)C1CCc2ccccc21 (stereo not drawn) [Example 57, N-Benzyl-N′-(2,4-difluorophenyl)-N-(1-indanyl)urea] | 84
O=C(Nc1ccc(F)cc1F)N(Cc1ccccc1)C1CCCc2ccccc21 (stereo not drawn) [Example 58, N-Benzyl-N′-(2,4-difluorophenyl)-N-(1,2,3,4-tetrahydro-1-naphthyl)urea] | 94
O=C(Nc1ccc(F)cc1F)N(Cc1ccccc1)C1CCCCc2ccccc21 (stereo not drawn) [Example 59, N-Benzyl-N′-(2,4-difluorophenyl)-N-(6,7,8,9-tetrahydro-5H-5-benzocycloheptenyl)urea] | 80
COc1cc(CN(C(=O)Nc2ccc(F)cc2F)C2CCc3ccccc32)cc(OC)c1O (stereo not drawn) [Example 60, N-(2,4-Difluorophenyl)-N′-(4-hydroxy-3,5-dimethoxybenzyl)-N′-(1-indanyl)urea] | 83
COc1cc(CN(C(=O)Nc2ccc(F)cc2F)C2CCCc3ccccc32)cc(OC)c1O (stereo not drawn) [Example 61, N-(2,4-Difluorophenyl)-N′-(4-hydroxy-3,5-dimethoxybenzyl)-N′-(1,2,3,4-tetrahydro-1-naphthyl)urea] | 53
COc1cc(CN(C(=O)Nc2ccc(F)cc2F)C2CCCCc3ccccc32)cc(OC)c1O (stereo not drawn) [Example 62, N-(2,4-Difluorophenyl)-N′-(6,7,8,9-tetrahydro-5H-5-benzocycloheptenyl)-N′-(4-hydroxy-3,5-dimethoxybenzyl)urea] | 69
